Columns and labels:
Assay in all cases: relative viability (nuclei count vs DMSO), 5 days (fraction); higher = more cells survive
LC-2-ad = tested on: LC-2-ad
In short: (§1)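 Relative viability is defined as nuclei in treated wells over nuclei in vehicle wells. Duplicate plates were run and medians reported. Lung cancer cell lines in 1536-well plates were dosed by pin tool one day after seeding, with one drug or with a fixed anchor-drug dose plus five library-drug doses (not always all listed) in √10 steps, and nuclei were counted after 5 days.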

HCC-15 = tested on: HCC-15
In short: as §1

SW 1573 = tested on: SW 1573
In short: as §1

NCI-H2126 = tested on: NCI-H2126
In short: as §1

NCI-H3122 = tested on: NCI-H3122
In short: as §1

NCI-H1755 = tested on: NCI-H1755
In short: as §1

HOP-62 = tested on: HOP-62
In short: as §1

LU99A = tested on: LU99A
In short: as §1

NCI-H1734 = tested on: NCI-H1734
In short: as §1

NCI-H1395 = tested on: NCI-H1395
In short: as §1

NCI-H1437 = tested on: NCI-H1437
In short: as §1

NCI-H2023 = tested on: NCI-H2023
In short: as §1

NCI-H650 = tested on: NCI-H650
In short: as §1

NCI-H727 = tested on: NCI-H727
In short: as §1

NCI-H1915 = tested on: NCI-H1915
In short: as §1

NCI-H358 = tested on: NCI-H358
In short: as §1

HCC-44 = tested on: HCC-44
In short: as §1

NCI-H1563 = tested on: NCI-H1563
In short: as §1

BEN = tested on: BEN
In short: as §1

EMC-BAC-2 = tested on: EMC-BAC-2
In short: as §1

Compound: CCNC(=O)c1noc(-c2cc(C(C)C)c(O)cc2O)c1-c1ccc(CN2CCOCC2)cc1 [Luminespib] + C[C@]1(O)C[C@@H](c2nc(-c3ccc4ccc(-c5ccccc5)nc4c3)c3c(N)nccn32)C1 [Linsitinib] (partner 1 µM)
- relative viability (LC-2-ad; first compound 0.002 µM): 0.887
- relative viability (LC-2-ad; first compound 0.006325 µM): 0.806
- relative viability (LC-2-ad; first compound 0.02 µM): 0.808
- relative viability (LC-2-ad; first compound 0.06325 µM): 0.165
- relative viability (LC-2-ad; first compound 0.2 µM): 0.129
- relative viability (HCC-15; first compound 0.002 µM): 0.837
- relative viability (HCC-15; first compound 0.006325 µM): 0.873
- relative viability (HCC-15; first compound 0.02 µM): 0.929
- relative viability (HCC-15; first compound 0.06325 µM): 0.57
- relative viability (HCC-15; first compound 0.2 µM): 0.519
- relative viability (SW 1573; first compound 0.002 µM): 0.88
- relative viability (SW 1573; first compound 0.006325 µM): 0.594
- relative viability (SW 1573; first compound 0.02 µM): 0.707
- relative viability (SW 1573; first compound 0.06325 µM): 0.423
- relative viability (SW 1573; first compound 0.2 µM): 0.123
- relative viability (NCI-H2126; first compound 0.002 µM): 0.686
- relative viability (NCI-H2126; first compound 0.006325 µM): 0.652
- relative viability (NCI-H2126; first compound 0.02 µM): 0.536
- relative viability (NCI-H2126; first compound 0.06325 µM): 0.761
- relative viability (NCI-H2126; first compound 0.2 µM): 0.741
- relative viability (NCI-H3122; first compound 0.002 µM): 0.936
- relative viability (NCI-H3122; first compound 0.006325 µM): 0.973
- relative viability (NCI-H3122; first compound 0.02 µM): 0.945
- relative viability (NCI-H3122; first compound 0.06325 µM): 0.172
- relative viability (NCI-H3122; first compound 0.2 µM): 0.146
- relative viability (NCI-H1755; first compound 0.002 µM): 0.974
- relative viability (NCI-H1755; first compound 0.006325 µM): 0.944
- relative viability (NCI-H1755; first compound 0.02 µM): 0.98
- relative viability (NCI-H1755; first compound 0.06325 µM): 0.946
- relative viability (NCI-H1755; first compound 0.2 µM): 0.921
- relative viability (HOP-62; first compound 0.002 µM): 1.07
- relative viability (HOP-62; first compound 0.006325 µM): 0.958
- relative viability (HOP-62; first compound 0.02 µM): 0.945
- relative viability (HOP-62; first compound 0.06325 µM): 1.12
- relative viability (HOP-62; first compound 0.2 µM): 0.934
- relative viability (LU99A; first compound 0.002 µM): 0.574
- relative viability (LU99A; first compound 0.006325 µM): 0.486
- relative viability (LU99A; first compound 0.02 µM): 0.357
- relative viability (LU99A; first compound 0.06325 µM): 0.172
- relative viability (LU99A; first compound 0.2 µM): 0.144
- relative viability (NCI-H1734; first compound 0.002 µM): 0.917
- relative viability (NCI-H1734; first compound 0.006325 µM): 0.792
- relative viability (NCI-H1734; first compound 0.02 µM): 0.7
- relative viability (NCI-H1734; first compound 0.06325 µM): 0.258
- relative viability (NCI-H1734; first compound 0.2 µM): 0.167
- relative viability (NCI-H1395; first compound 0.002 µM): 1.06
- relative viability (NCI-H1395; first compound 0.006325 µM): 1.02
- relative viability (NCI-H1395; first compound 0.02 µM): 0.759
- relative viability (NCI-H1395; first compound 0.06325 µM): 0.772
- relative viability (NCI-H1395; first compound 0.2 µM): 0.326
- relative viability (NCI-H1437; first compound 0.002 µM): 1.06
- relative viability (NCI-H1437; first compound 0.006325 µM): 0.989
- relative viability (NCI-H1437; first compound 0.02 µM): 1.08
- relative viability (NCI-H1437; first compound 0.06325 µM): 0.22
- relative viability (NCI-H1437; first compound 0.2 µM): 0.0998
- relative viability (NCI-H2023; first compound 0.002 µM): 0.652
- relative viability (NCI-H2023; first compound 0.006325 µM): 0.575
- relative viability (NCI-H2023; first compound 0.02 µM): 0.732
- relative viability (NCI-H2023; first compound 0.06325 µM): 0.0892
- relative viability (NCI-H2023; first compound 0.2 µM): 0.0832
- relative viability (NCI-H650; first compound 0.002 µM): 0.917
- relative viability (NCI-H650; first compound 0.006325 µM): 0.888
- relative viability (NCI-H650; first compound 0.02 µM): 0.497
- relative viability (NCI-H650; first compound 0.06325 µM): 0.0891
- relative viability (NCI-H650; first compound 0.2 µM): 0.117
- relative viability (NCI-H727; first compound 0.002 µM): 0.317
- relative viability (NCI-H727; first compound 0.006325 µM): 0.258
- relative viability (NCI-H727; first compound 0.02 µM): 0.284
- relative viability (NCI-H727; first compound 0.06325 µM): 0.221
- relative viability (NCI-H727; first compound 0.2 µM): 0.211
- relative viability (NCI-H1915; first compound 0.002 µM): 1.12
- relative viability (NCI-H1915; first compound 0.006325 µM): 1.09
- relative viability (NCI-H1915; first compound 0.02 µM): 1.02
- relative viability (NCI-H1915; first compound 0.06325 µM): 1.11
- relative viability (NCI-H1915; first compound 0.2 µM): 1.05
- relative viability (NCI-H358; first compound 0.002 µM): 0.828
- relative viability (NCI-H358; first compound 0.006325 µM): 0.654
- relative viability (NCI-H358; first compound 0.02 µM): 0.649
- relative viability (NCI-H358; first compound 0.06325 µM): 0.129
- relative viability (NCI-H358; first compound 0.2 µM): 0.111
- relative viability (HCC-44; first compound 0.002 µM): 0.68
- relative viability (HCC-44; first compound 0.006325 µM): 0.714
- relative viability (HCC-44; first compound 0.02 µM): 0.684
- relative viability (HCC-44; first compound 0.06325 µM): 0.251
- relative viability (HCC-44; first compound 0.2 µM): 0.158
- relative viability (NCI-H1563; first compound 0.002 µM): 1.34
- relative viability (NCI-H1563; first compound 0.006325 µM): 1.13
- relative viability (NCI-H1563; first compound 0.02 µM): 1.11
- relative viability (NCI-H1563; first compound 0.06325 µM): 0.535
- relative viability (NCI-H1563; first compound 0.2 µM): 0.542
- relative viability (BEN; first compound 0.002 µM): 0.955
- relative viability (BEN; first compound 0.006325 µM): 0.892
- relative viability (BEN; first compound 0.02 µM): 0.427
- relative viability (BEN; first compound 0.06325 µM): 0.627
- relative viability (BEN; first compound 0.2 µM): 0.252
- relative viability (EMC-BAC-2; first compound 0.002 µM): 0.793
- relative viability (EMC-BAC-2; first compound 0.006325 µM): 0.783
- relative viability (EMC-BAC-2; first compound 0.02 µM): 0.665
- relative viability (EMC-BAC-2; first compound 0.06325 µM): 0.788
- relative viability (EMC-BAC-2; first compound 0.2 µM): 0.901

Source: the supplement of paper PMC10307832
